ChEMBL document CHEMBL1255486, “Effect of vicriviroc on the QT/corrected QT interval and central nervous system in healthy subjects” (Antimicrob Agents Chemother, 2010)

Experiments:
[1] = test system: Homo sapiens; assay: Toxicity in healthy human assessed as fatigue at 150 […], po once daily for 7 days; type: organism-based; design: route oral; conditions: in vivo, 168 h
[2] = test system: Homo sapiens; assay: Toxicity in healthy human assessed as puncture site pain at 300 […], po administered as single dose; type: organism-based; design: route oral; conditions: in vivo
[3] = test system: Homo sapiens; assay: Toxicity in healthy human assessed as nausea at 200 […], po administered as single dose; type: organism-based; design: route oral; conditions: in vivo
[4] = AUC (0 to 24 hrs) in healthy human at 250 mg/kg, po once daily for 7 days measured after 1 day of last dose; type: ADME, organism-based; design: time < 24 hr, dose 250 mg/kg, route oral; conditions: plasma
[5] = test system: Homo sapiens; assay: Toxicity in healthy human assessed as pollakiuria at 250 […], po once daily for 7 days; type: organism-based; design: route oral; conditions: in vivo, 168 h
[6] = test system: Homo sapiens; assay: Toxicity in healthy human assessed as back pain at 250 mg/kg, po once daily for 7 days; type: organism-based; design: dose 250 mg/kg, route oral; conditions: in vivo, 168 h
[7] = Cmax in healthy human at 150 […], po once daily for 7 days measured after 1 day of last dose; type: ADME, organism-based; design: dose 150 mg/kg, route oral; conditions: in vivo
[8] = test system: Homo sapiens; assay: Toxicity in healthy human assessed as increase in blood […] at 250 […], po once daily for 7 days; type: organism-based; design: route oral; conditions: in vivo, 168 h
[9] = Cmax in healthy human at 150 […], po after 10 days; type: ADME, organism-based; design: dose 150 mg/kg, route oral; conditions: in vivo
[10] = test system: Homo sapiens; assay: Toxicity in healthy human assessed as EEG abnormality at 150 […], po once daily for 7 days; type: organism-based; design: dose 150 mg/kg, route oral; conditions: in vivo, 168 h
[11] = test system: Homo sapiens; assay: Toxicity in healthy human assessed as nausea at 250 […], po once daily for 7 days; type: organism-based; design: route oral; conditions: in vivo, 168 h
[12] = test system: Homo sapiens; assay: Toxicity in healthy human assessed as pollakiuria at 200 […], po once daily for 7 days; type: organism-based; design: route oral; conditions: in vivo, 168 h
[13] = test system: Homo sapiens; assay: Toxicity in healthy human assessed as headache at 300 […], po administered as single dose; type: organism-based; design: route oral; conditions: in vivo
[14] = AUC (0 to infinity) in healthy human at 250 mg/kg, po administered as single dose after 1 day; type: ADME, organism-based; design: time infinity, dose 250 mg/kg, route oral; conditions: plasma
[15] = test system: Homo sapiens; assay: Toxicity in healthy human assessed as EEG abnormality at 200 mg/kg, po once daily for 7 days; type: organism-based; design: dose 200 mg/kg, route oral; conditions: in vivo, 168 h
[16] = test system: Homo sapiens; assay: Toxicity in healthy human assessed as headache at 200 […], po once daily for 7 days; type: organism-based; design: route oral; conditions: in vivo, 168 h
[17] = AUC (0 to 24 hrs) in healthy human at 250 mg/kg, po once daily for 7 days; type: ADME, organism-based; design: time < 24 hr, dose 250 mg/kg, route oral; conditions: plasma
[18] = test system: Homo sapiens; assay: Toxicity in healthy human assessed as fatigue at 200 […], po once daily for 7 days; type: organism-based; design: route oral; conditions: in vivo, 168 h
[19] = Tmax in healthy human at 250 mg/kg, po once daily for 7 days measured after 1 day of last dose; type: ADME, organism-based; design: dose 250 mg/kg, route oral; conditions: in vivo
[20] = test system: Homo sapiens; assay: Toxicity in healthy human assessed as fatigue at 300 […], po administered as single dose; type: organism-based; design: route oral; conditions: in vivo
[21] = AUC (0 to 24 hrs) in healthy human at 150 […], po once daily for 7 days; type: ADME, organism-based; design: time < 24 hr, dose 150 mg/kg, route oral; conditions: plasma
[22] = test system: Homo sapiens; assay: Toxicity in healthy human assessed as nausea at 150 […], po once daily for 7 days; type: organism-based; design: route oral; conditions: in vivo, 168 h
[23] = test system: Homo sapiens; assay: Toxicity in healthy human assessed as nausea at 250 […], po administered as single dose; type: organism-based; design: route oral; conditions: in vivo
[24] = Tmax in healthy human at 30 mg/kg, po after 10 days; type: ADME, organism-based; design: dose 30 mg/kg, route oral; conditions: in vivo
[25] = test system: Homo sapiens; assay: Toxicity in healthy human assessed as pollakiuria at 150 […], po once daily for 7 days; type: organism-based; design: route oral; conditions: in vivo, 168 h
[26] = Cmax in healthy human at 250 mg/kg, po once daily for 7 days; type: ADME, organism-based; design: dose 250 mg/kg, route oral; conditions: in vivo
[27] = test system: Homo sapiens; assay: Toxicity in healthy human assessed as pollakiuria at 200 […], po administered as single dose; type: organism-based; design: route oral; conditions: in vivo
[28] = test system: Homo sapiens; assay: Toxicity in healthy human assessed as headache at 250 […], po administered as single dose; type: organism-based; design: route oral; conditions: in vivo
[29] = Tmax in healthy human at 150 […], po once daily for 7 days; type: ADME, organism-based; design: dose 150 mg/kg, route oral; conditions: in vivo
[30] = Tmax in healthy human at 250 mg/kg, po administered as single dose after 1 day; type: ADME, organism-based; design: dose 250 mg/kg, route oral; conditions: in vivo
[31] = Cmax in healthy human at 300 mg/kg, po administered as single dose after 1 day; type: ADME, organism-based; design: dose 300 mg/kg, route oral; conditions: in vivo
[32] = Cmax in healthy human at 250 mg/kg, po administered as single dose after 1 day; type: ADME, organism-based; design: dose 250 mg/kg, route oral; conditions: in vivo
[33] = test system: Homo sapiens; assay: Cardiotoxicity in healthy human assessed as change in corrected QT interval at 30 mg/kg, po after 10 days by ECG; type: toxicity, organism-based; design: dose 30 mg/kg, route oral; conditions: in vivo, 240 h
[34] = test system: Homo sapiens; assay: Toxicity in healthy human assessed as headache at 150 […], po once daily for 7 days; type: organism-based; design: route oral; conditions: in vivo, 168 h
[35] = test system: Homo sapiens; assay: Toxicity in healthy human assessed as EEG abnormality at 200 mg/kg, po administered as single dose; type: organism-based; design: dose 200 mg/kg, route oral; conditions: in vivo
[36] = Tmax in healthy human at 250 mg/kg, po once daily for 7 days; type: ADME, organism-based; design: dose 250 mg/kg, route oral; conditions: in vivo

## COC[C@@H](c1ccc(C(F)(F)F)cc1)N1CCN(C2(C)CCN(C(=O)c3c(C)ncnc3C)CC2)C[C@@H]1C [VICRIVIROC]
[1]
  Activity: 50%
[2]
  Activity: 17%
[3]
  Activity: 0%
[4]
  AUC at 24 h: 5050 ng·h/mL
[5]
  Activity: 0%
[6]
  Activity: 20%
[7]
  Cmax: 474 ng/mL
[8]
  Activity: 10%
[9]
  Cmax: 1900 ng/mL
[10]
  Activity: 0%
[11]
  Activity: 13%
[12]
  Activity: 13%
[13]
  Activity: 13%
[14]
  AUC(0-inf): 11000 ng·h/mL
[15]
  Activity: 0%
[16]
  Activity: 13%
[17]
  AUC at 24 h: 8750 ng·h/mL
[18]
  Activity: 0%
[19]
  Tmax: 1.5 h
[20]
  Activity: 0%
[21]
  AUC at 24 h: 6060 ng·h/mL
[22]
  Activity: 17%
[23]
  Activity: 0%
[24]
  Tmax: 2 h
[25]
  Activity: 38%
[26]
  Cmax: 1040 ng/mL
[27]
  Activity: 0%
[28]
  Activity: 38%
[29]
  Tmax: 1.5 h
[30]
  Tmax: 2 h
[31]
  Cmax: 1130 ng/mL
[32]
  Cmax: 984 ng/mL
[33]
  Activity: Non-toxic
[34]
  Activity: 50%
[35]
  Activity: 0%
[36]
  Tmax: 2 h
